According to patent EP1207159A1, “Aromaheterocyclic derivatives as dopamine D4 receptor antagonists” (TAISHO PHARMACEUTICAL CO. LTD, priority 1993, dated 1999):
Counter-ions that a name gives are not always drawn.

Key:
[1] = molecular target: T1, Dopamine D2 Receptor (Rattus norvegicus, UniProt P61169); assay: Dopamine D2 receptor binding assay ([3H]raclopride, rat striatum membrane); conditions: 50% inhibition of [3H]raclopride (1 nM) binding, 25°C, an hour
T1 construct: Rat striatum was homogenized in 50 mM Tris-hydrochloric acid buffer (pH 7.4), centrifuged at 48,000 × g; from tissue; host or cells: rat striatum membrane
Method: Rat striatum membrane was used as a receptor preparation.
[^3H]raclopride was used as [^3H]-labeled ligand.
A binding reaction using the [^3H]-labeled ligand was carried out according to the following method as described in Mol. J. Pharmacol., 43, 749(1993).
Preparation of Receptor Preparation: Rat striatum was homogenized in 50 mM Tris-hydrochloric acid buffer (pH 7.4), centrifuged at 48,000 × g, and the precipitate was washed once with a Tris-hydrochloric acid buffer. The precipitate was suspended in 50 mM Tris-hydrochloric acid buffer (pH 7.4) containing 120 mM NaCl, 1.5 mM KCl, 2 mM CaCl2 and 1 mM MgCl2 to give a membrane preparation.
Dopamine D2 Receptor Binding Assay: The membrane preparation (0.5 mg of protein/ml), [^3H]raclopride (1 nM) and each test drug were reacted at 25°C for an hour.
After completion of the reaction, the reaction solution was filtered by suction through a glass filter (GF/B), and the radioactivity on the filter was determined by a liquid scintillation spectrometer.
The binding under the reaction in the presence of 10 µM haloperidol was defined as non-specific binding of [^3H]raclopride, and the difference between total binding and non-specific binding was defined as specific binding. […]

[2] = molecular target: T2, human D4.2 receptor (Homo sapiens, UniProt P21917, DEL265-296); assay: Dopamine D4 receptor binding assay ([3H]spiperone, CHO cell membranes); conditions: 50% inhibition of [3H]spiperone binding; CHO cell membranes expressing human D4.2 receptor; 27°C, 2 hours
T2 construct: expressed in transfected cells; host or cells: CHO cells (membranes)
T2 sequence (P21917 with tags, fused parts or gaps DEL265-296): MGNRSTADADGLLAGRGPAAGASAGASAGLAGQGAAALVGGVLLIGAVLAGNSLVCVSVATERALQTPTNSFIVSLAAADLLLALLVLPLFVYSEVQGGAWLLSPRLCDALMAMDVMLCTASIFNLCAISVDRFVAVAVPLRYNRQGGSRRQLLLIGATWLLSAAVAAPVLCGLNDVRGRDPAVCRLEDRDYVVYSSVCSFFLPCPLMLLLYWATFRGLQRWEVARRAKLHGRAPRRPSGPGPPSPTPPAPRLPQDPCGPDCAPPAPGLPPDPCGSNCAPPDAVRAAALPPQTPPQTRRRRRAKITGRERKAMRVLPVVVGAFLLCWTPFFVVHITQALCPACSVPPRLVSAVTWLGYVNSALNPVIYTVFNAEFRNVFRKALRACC
Method: Chinese hamster ovarium (CHO) cell membranes wherein human D4.2 receptor was expressed were used as a receptor preparation.
[^3H]spiperone was used as [^3H]-labeled ligand.
A binding reaction using the [^3H]-labeled ligand was carried out according to the following method as described in Eur. J. Pharmacol., 233, 173(1993).
Dopamine D4.2 Receptor Binding Assay: The CHO cell membranes wherein human D4.2 receptor was expressed, [^3H]spiperone ([…]) and each test drug were reacted in 50 mM Tris-hydrochloric acid buffer (pH 7.4) containing 5 mM EDTA, 1.5 mM CaCl2, 5 mM KCl and 120 mM NaCl at 27°C for 2 hours.
After completion of the reaction, the reaction solution was filtered by suction through a glass filter (GF/B), and the radioactivity on the filter was measured by a liquid scintillation spectrometer.
The binding under the reaction in the presence of 10 µM haloperidol was defined as non-specific binding of [^3H]spiperone, and the difference between the total binding and the non-specific binding was defined as specific binding.

T1 sequence (P61169 whole entry): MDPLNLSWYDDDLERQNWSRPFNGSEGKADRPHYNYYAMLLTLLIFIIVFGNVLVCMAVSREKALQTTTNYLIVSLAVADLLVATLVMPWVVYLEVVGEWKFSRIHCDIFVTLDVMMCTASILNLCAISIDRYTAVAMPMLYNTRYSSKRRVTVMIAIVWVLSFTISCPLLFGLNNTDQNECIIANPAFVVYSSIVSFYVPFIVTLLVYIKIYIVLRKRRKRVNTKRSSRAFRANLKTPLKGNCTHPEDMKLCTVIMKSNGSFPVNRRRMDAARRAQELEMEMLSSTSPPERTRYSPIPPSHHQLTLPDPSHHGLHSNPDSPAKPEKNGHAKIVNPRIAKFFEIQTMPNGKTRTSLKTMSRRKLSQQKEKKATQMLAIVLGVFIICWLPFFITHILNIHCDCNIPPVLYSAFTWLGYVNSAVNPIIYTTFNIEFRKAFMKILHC

| SMILES | IC50 [1] [nM] | IC50 [2] [nM] |
| --- | --- | --- |
| Fc1ccc(-c2ncncc2CCN2CCC(=Cc3cccc(F)c3)CC2)cc1 [Compound A-11] | 521 | 4.53 |
| CSc1ncc(CCN2CCC(=Cc3ccccc3F)CC2)c(-c2ccc(F)cc2)n1 [Compound A-14, 4-(4-fluorophenyl)-5-[2-[4-(2-fluorobenzylidene)piperidin-1-yl]ethyl]-2-methylthiopyrimidine dihydrochloride] | 148 | 12.6 |
| Fc1ccc(C=C2CCN(CCc3cn[nH]c3-c3ccccc3)CC2)cc1 [Compound A-05] | 89 | 1.12 |
